From patent US20230172204A1 (BASF SE, priority 2020, published 2023)

Columns and labels:
[1] = tested on: Phakopsora pachyrhizi (F129L); experiment: Protective control of soybean rust on soybeans (PHAKPA P2); assay type: in vivo; conditions: for PHAKPA (F129L) Disease level (%) P2 at 4 ppm / PHAKPA (F129L) Disease level (%) P2 at 16 ppm: P2 protective, % diseased leaf area; for % PHAKPA (F129L) Disease level P2 at 4 ppm: protective P2, 4 ppm; for % PHAKPA (F129L) Disease level P2 at 4 ppm / % PHAKPA (F129L) Disease level P2 at 16 ppm: soybean rust F129L; for % PHAKPA (F129L) Disease level P2 at 16 ppm: protective P2, 16 ppm
[2] = tested on: Phakopsora pachyrhizi (F129L); experiment: Protective control of soybean rust on soybeans (PHAKPA P6); assay type: in vivo; conditions: for % PHAKPA (F129L) Disease level P6 at 4 ppm: protective P6, 4 ppm; for % PHAKPA (F129L) Disease level P6 at 4 ppm / % PHAKPA (F129L) Disease level P6 at 16 ppm: soybean rust F129L; for % PHAKPA (F129L) Disease level P6 at 16 ppm: protective P6, 16 ppm
[3] = P6 protective, % diseased leaf area

Row | Compound | PHAKPA (F129L) Disease level (%) P2 at 4 ppm [1] | % PHAKPA (F129L) Disease level P2 at 4 ppm [1] | % PHAKPA (F129L) Disease level P2 at 16 ppm [1] | PHAKPA (F129L) Disease level (%) P6 at 4 ppm ([2]; P6 protective, 4 ppm, % diseased leaf area) | % PHAKPA (F129L) Disease level P6 at 4 ppm [2] | % PHAKPA (F129L) Disease level P6 at 16 ppm [2] | PHAKPA (F129L) Disease level (%) P2 at 16 ppm [1] | PHAKPA (F129L) Disease level (%) P6 at 16 ppm [2, 3]
1 | CC/C(=N\OCc1c(C)cccc1/C(=N\OC)C(=O)NC)c1cccc(C(F)(F)F)c1 [Ex. 188] | 2% | 1% | 0% | 30% | 11% | 0% |  | 
2 | CNC(=O)/C(=N/OC)c1cccc(C)c1CO/N=C(\C)c1ccc(OC(F)(F)F)cc1C [compound 261] |  | 70% | 9% |  | 87% | 32% |  | 
3 | CNC(=O)/C(=N/OC)c1cccc(C)c1CO/N=C(\C)c1cc(C)cc(Cl)c1 [compound 106] |  | 5% | 1% |  | 32% | 9% |  | 
4 | CO/N=C(/C(=O)OC)c1cccc(C)c1CO/N=C(\C)c1cccc(F)c1C(F)(F)F [compound 330] |  | 83% | 24% |  | 93% | 17% |  | 
5 | CCC/C(=N\OCc1c(C)cccc1/C(=N\OC)C(=O)OC)c1ccccc1 [compound 387] |  | 60% | 30% |  | 80% | 47% |  | 
6 | CO/N=C(/C(=O)OC)c1cccc(C)c1CO/N=C(\C)c1c(F)cc(F)cc1F [compound 169] |  | 77% | 0% |  | 77% | 0% |  | 
7 | CNC(=O)/C(=N/OC)c1cccc(C)c1CO/N=C(\C)c1c(F)cc(Br)cc1OC(F)(F)F [compound 355] |  | 34% | 7% |  | 48% | 4% |  | 
8 | CO/N=C(/C(=O)OC)c1cccc(C)c1CO/N=C(\C)c1cc(C)ccc1C [compound 203] |  | 87% | 32% |  | 93% | 32% |  | 
9 | CO/N=C(/C(=O)OC)c1cccc(C)c1CO/N=C(\C)c1ccc(OC)cc1C(F)(F)F [compound 328] |  | 33% | 8% |  | 23% | 5% |  | 
10 | CNC(=O)/C(=N/OC)c1ccccc1CO/N=C(\C)c1ccc(C#N)cc1 [reference compound] |  |  |  |  |  |  | 37% | 63%
11 | CO/N=C(/C(=O)OC)c1ccccc1CO/N=C(\C)c1cccc(F)c1 [reference compound] |  |  |  |  |  |  | 90% | 80%
12 | CO/N=C(/C(=O)OC)c1cccc(C)c1CO/N=C(\OC)c1cccc(C)c1 [drawing 970, reference compound] | 83% |  |  |  |  |  |  | 57%
13 | CNC(=O)/C(=N/OC)c1cccc(C)c1CO/N=C(\C)c1cccc(OC(F)F)c1 [compound 81] |  | 6% | 0% |  | 2% | 0% |  | 
14 | C=Cc1cccc(/C(=N\OC)C(=O)NC)c1CO/N=C(\C)c1cccc(C(F)(F)F)c1 [compound 14] |  | 6% | 0% |  | 11% | 1% |  | 
15 | CO/N=C(/C(=O)OC)c1cccc(C)c1CO/N=C(\C)c1ccc(-c2cc(C)on2)cc1 [compound 63] |  | 90% | 77% |  | 93% | 77% |  | 
16 | CO/N=C(/C(=O)OC)c1cccc(C)c1CO/N=C(\C)c1ccc(F)cc1F [compound 266] |  | 67% | 18% |  | 90% | 43% |  | 
17 | CNC(=O)/C(=N/OC)c1cccc(C)c1CO/N=C(\C)c1c(Cl)ccc(Cl)c1OC(F)(F)F [compound 441] |  | 100% | 43% |  | 97% | 50% |  | 
18 | CO/N=C(/C(=O)OC)c1cccc(C)c1CO/N=C(\C)c1cccc(Br)c1 [Ex. 56] |  | 43% | 24% |  | 67% | 19% | 32% | 15%
